This is an account of results in ChEMBL document CHEMBL4049389, “Design, synthesis and biological evaluation of aminobenzyloxyarylamide derivatives as selective κ opioid receptor antagonists” (Eur J Med Chem, 2017).

Usually half-life stands for how long it takes for the measured level to halve. As a reminder, the Tmax is the time at which the peak concentration occurs. As a reminder, the bioavailability is the share of a dose that reaches the circulation, judged against a reference dose that is usually intravenous. A higher bioavailability goes with much systemic uptake.

Assay type in all cases: ADME, organism-based
What all share (settings): in vivo

The nature of data set [1]: Half life in rat at 1 or 10 mg/kg, iv or po by LC-MS/MS analysis.
Data set [2] can be described thus: Tmax in rat at 1 or 10 mg/kg, iv or po by LC-MS/MS analysis.
The nature of data set [3]: Oral bioavailability in rat at 10 mg/kg by LC-MS/MS analysis.

The compound `Cc1cc(C)cc([C@@H]2CCCN2Cc2ccc(Oc3ccc(C(N)=O)cc3F)cc2)c1` [ATICAPRANT] yielded a half-life in data set [1] of 2 to 4 h. In data set [2], the Tmax was in the range of 1 to 2 h. The compound further had a bioavailability in data set [3] of 25%.
